Measurements from patent publication US20260132413A1, “AROGENATE DEHYDROGENASE POLYNUCLEOTIDES, POLYPEPTIDES AND METHODS OF USING THE SAME” (Wisconsin Alumni Research Foundation, priority 2017, published 2026).
“Also recorded” adds a separate entry of the source.

Tests used:
BvADHβ = test: Tyr/effector sensitivity of ADH activity of purified recombinant enzyme; format: biochemical, Beta vulgaris; conditions: for effect of effector on ADH activity: effector at 1 mM; for inhibition of ADH activity: GST-tagged BvADHβ
Experimental: (§1) […]. The production of reduced cofactor (NADPH) was monitored at 340 nm using a spectrophotometer every two minutes for 10 min. In addition, other effectors (L-Phe, L-Trp, and betanin) were used to test possible inhibition of the enzyme ADH activity at a final concentration of 1 mM. All of the reactions were performed under non-saturated condition, where activity increased linearly depending on reaction times and enzyme concentrations.

BvADHα = test: as above; format: biochemical, Beta vulgaris; conditions: for effect of effector on ADH activity: effector at 1 mM
Experimental: as §1

AtADH2 = biological target: T1, AtADH2 (Arabidopsis thaliana, UniProt Q9LMR3); test: Effector sensitivity of ADH activity of purified recombinant enzyme; format: biochemical; conditions: effector at 1 mM
T1 construct: made in house; host or cells: E. coli Rosetta-2 (pGEX-2T)
T1 sequence (Q9LMR3 37-358): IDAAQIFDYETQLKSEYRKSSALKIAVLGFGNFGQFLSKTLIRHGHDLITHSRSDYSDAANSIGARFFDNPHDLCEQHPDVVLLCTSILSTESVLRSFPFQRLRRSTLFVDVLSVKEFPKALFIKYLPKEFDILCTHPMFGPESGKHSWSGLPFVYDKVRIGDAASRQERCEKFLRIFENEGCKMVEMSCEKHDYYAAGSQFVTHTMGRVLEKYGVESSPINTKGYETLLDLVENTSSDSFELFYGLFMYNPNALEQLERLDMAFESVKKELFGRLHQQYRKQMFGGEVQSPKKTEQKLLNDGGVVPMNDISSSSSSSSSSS
Experimental: as §1

[1] = system: ADH activity of Arabidopsis leaf crude extract; test: Tyr sensitivity of ADH activity from plant tissue extracts; format: biochemical, Arabidopsis thaliana; conditions: 1 mM arogenate, 1 mM NADP+; for inhibition (%): 0.5 mM effector vs 0 mM, 2 hr
Experimental: (§2) Spinach oleracea seeds (HighMowing, Wolcott, VT) and pink Dianthus barbatus (BloomIQ, Lansing, MI) seedlings were purchased from a nursery and were grown together with Arabidopsis thaliana (ecotype Columbia) in 22° C., 60% humidity, and 12/12 h light cycle growth chamber. Leaves of spinach and Arabidopsis seedlings were harvested at 3-week-old, and Dianthus barbatus leaves were harvested at 6-week-old. The crude extracts of Arabidopsis or Dianthus barbatus were prepared from ˜1 g leaf tissues according to Aryal et al. (2014). For spinach, ˜10 g leaf tissues were used to isolate the plastids according to Aryal et al. (2014) in order to avoid the undesired cytosolic polyphenol oxidase activity. Crude or plastid fractions were desalted by Sephadex G50 column to obtain protein extracts, and protein concentration of all biological replicates were adjusted to 0.06, 0.85, and 0.6 mg/mL for spinach, Dianthus barbatus, and Arabidopsis extracts, respectively. […] The reaction was stopped by adding 20 μL methanol containing 10 μM norvaline as an internal standard. Respective boiled protein extracts were used as negative controls. […]

[2] = system: ADH activity of spinach leaf plastid extract; test: as above; format: biochemical, Spinach oleracea; conditions: 1 mM arogenate, 1 mM NADP+; for inhibition (%): 0.5 mM effector vs 0 mM, 2 hr
Experimental: as §2

[3] = system: ADH activity of Dianthus barbatus leaf crude extract; test: as above; format: biochemical; conditions: 1 mM arogenate, 1 mM NADP+; for inhibition (%): 0.5 mM effector vs 0 mM, 2 hr
Experimental: as §2

NaADHβ = test: Tyr sensitivity of ADH activity of purified recombinant enzyme; format: biochemical, Nepenthes ventricosa x alata
Experimental: as §1

SoADHα = test: as above; format: biochemical, Spinacia oleracea
Experimental: as §1

[4] = 0.5 mM 3-fluoro-Tyr, 2 hr incubation

Structure (SMILES)	effect of effector on ADH activity (AtADH2)	effect of effector on ADH activity (BvADHβ)	effect of effector on ADH activity (BvADHα)	inhibition (%) [1]	inhibition (%) [2] [%]	inhibition (%) [3]	other results
NC(Cc1ccc(O)c(F)c1)C(=O)O (centres unmarked) [3-fluoro-Tyr]	–	–	–	91.6%	20.7	95.0%	ADH activity [1, 4]: 7.8 ± 0.5 nmol/mg protein; ADH activity [2, 4]: 52.7 ± 1.9 nmol/mg protein; ADH activity [3, 4]: 0.9 ± 0.2 nmol/mg protein
N[C@@H](Cc1ccc(O)cc1)C(=O)O [Tyr, L-Tyrosine]	–	–	–	92-95%	~21	92-95%	inhibition of ADH activity (BvADHβ; 100 μM Tyr): 80%; inhibition of ADH activity (BvADHβ; 1 mM Tyr): 100%; reduction of ADH activity (BvADHα; 1 mM Tyr, GST-tagged BvADHα): half; sensitivity to Tyr (BvADHα; His-tagged BvADHα, compared with AtADH2): much less sensitivity to Tyr than AtADH2; inhibition of ADH activity by Tyr (NaADHβ): strongly inhibited; Tyr sensitivity of ADH activity (SoADHα): reduced Tyr sensitivity
N[C@@H](Cc1c[nH]c2ccccc12)C(=O)O [tryptophan, L-tryptophan]	did not significantly reduce	did not significantly reduce; also recorded: not inhibited	did not significantly reduce; also recorded: not inhibited	–	–	–	–

Continued, in another order:

effect of effector on ADH activity (AtADH2)	Structure (SMILES)	effect of effector on ADH activity (BvADHβ)	effect of effector on ADH activity (BvADHα)	inhibition (%) [1]	inhibition (%) [2] [%]	inhibition (%) [3]	other results
did not significantly reduce	O=C(O)C1=C/C(=C/C=[N+]2/c3cc(O)c(OC4OC(CO)[C@@H](O)C(O)C4O)cc3CC2C(=O)[O-])CC(C(=O)O)N1 (stereo in doubt) [betanin]	did not significantly reduce; also recorded: not inhibited	did not significantly reduce; also recorded: not inhibited	–	–	–	–
did not significantly reduce	N[C@@H](Cc1ccccc1)C(=O)O [Phe, L-phenylalanine]	did not significantly reduce	did not significantly reduce	–	–	–	effect of effector on ADH activity (BvADHβ; listed as phenylalanine): not inhibited; effect of effector on ADH activity (BvADHα; listed as phenylalanine): not inhibited
